According to patent US11161838B2, “Heterocyclic derivatives as PI3K inhibitors” (Incyte Corporation, priority 2018, dated 2021):
Where a name gives a salt, the structure may show the parent alone.

Tests used:
PI3Kγ (p110γ) = PI3Kγ (p110γ) (Homo sapiens (Human), UniProt P48736); assay: PI3K-γ Scintillation Proximity Assay; format: biochemical; conditions: 20 μM PIP2, 2 μM ATP, 13 nM PI3Kγ, 120 min, room temperature
Source text: Example B. PI3K-γ Scintillation Proximity Assay
(§1) [γ-^33P]ATP (10 mCi/mL) and Wheat Germ Agglutinin (WGA) YSi SPA Scintillation Beads was purchased from Perkin Elmer (Waltham, Mass.). Lipid kinase substrate, D-myo-Phosphatidylinositol 4,5-bisphosphate (PtdIns(4,5)P2)D (+)-sn-1,2-di-O-octanoylglyceryl, 3-O-phospho linked (PIP2), CAS 204858-53-7, was purchased from Echelon Biosciences (Salt Lake City, Utah). PI3Kγ (p110γ) Recombinant Human Protein was purchased from Life technology (Grand Island, N.Y.). ATP, MgCl2, DTT, EDTA, MOPS and CHAPS were purchased from Sigma Aldrich (St. Louis, Mo.).
(§2) The kinase reaction was conducted in polystyrene 384-well Greiner Bio-one white plate from Thermo Fisher Scientific in a final volume of 25 μL. Inhibitors were first diluted serially in DMSO and added to the plate wells before the addition of other reaction components. The final concentration of DMSO in the assay was 2%. The PI3Kγ assay was carried out at room temperature in 20 mM MOPS, pH 6.7, 10 mM MgCl2, 5 mM DTT and CHAPS 0.03%. Reactions were initiated by the addition of ATP, the final reaction mixture consisted of 20 μM PIP2, 2 μM ATP, 0.5 μCi [γ-^33P] ATP, 13 nM PI3Kγ. Reactions were incubated for 120 min and terminated by the addition of 40 μL SPA beads suspended in quench buffer: 163 mM potassium phosphate pH 7.8, 20% glycerol, 25 mM EDTA. The final concentration of SPA beads is 1.0 mg/mL. After the plate sealing, plates were shaken overnight at room temperature and centrifuged at 1500 rpm for 10 min, the radioactivity of the product was determined by scintillation counting on Topcount (Perkin-Elmer). IC50 determination was performed by fitting the curve of percent of the solvent control activity versus the log of the inhibitor concentration using the GraphPad Prism 6.0 software.

PI3Kδ (p110δ/p85α) = PI3Kδ (p110δ/p85α) (Homo sapiens (Human), UniProt O00329); assay: PI3Kδ Scintillation Proximity Assay; format: biochemical; conditions: 20 μM PIP2, 2 μM ATP, 3.4 nM PI3Kδ, 120 min, room temperature
Source text: Example C. PI3Kδ Scintillation Proximity Assay
as §1, with “Materials: [γ-^33P]ATP” for “[γ-^33P]ATP”, “PI3Kδ (p110δ/p85α)” for “PI3Kγ (p110γ)”, “Eurofins (St Charles, Mo.).” for “Life technology (Grand Island, N.Y.).”
as §2, with “PI3K6” for “PI3Kγ”, “3.4” for “13”, “PI3K6.” for “PI3Kγ.”, “(PerkinElmer).” for “(Perkin-Elmer).”

[1] = test system: Phosphorylated Ribosomal Protein S6 (RPS6) in THP-1 cells; assay: THP-1 RPS6 ELISA Assay; format: cell-based; conditions: Homo sapiens; serum starved THP-1 cells, 2 hours with compound, then 10 nM MCP-1 for 15 minutes; Phospho-RPS6 ELISA; read-out: PI3Kγ_THP1_RPS6_ELISA IC50
Experimental: Example A. THP-1 RPS6 ELISA Assay
To measure the Phosphorylated Ribosomal Protein S6 (RPS6) in cell lysates, THP-1 cells (Human Acute Monocytic Leukemia) are purchased from ATCC (Manassas, Va.) and maintained in RPMI with 10% FBS (Gibco/Life Technologies, Carlsbad, Calif.). For the assay, THP-1 cells are serum starved overnight in RPMI, then plated in RPMI (2×10^5 cells/well in 90 μL) into 96-well flat-bottom tissue culture treated plates (Corning, Corning, N.Y.), in the presence or absence of a concentration range of test compounds. Covered plates are incubated for 2 hours at 37° C., 5% CO2 then treated with or without 10 nM MCP-1 (MYBioSource, San Diego, Calif.) for 15 minutes at 37° C., 5% CO2. Plates are centrifuged at 1600 RPM and supernatants are removed. Cells are lysed in Lysis Buffer (Cell Signaling, Danvers, Mass.) with Protease Inhibitor (Calbiochem/EMD, Germany), PMSF (Sigma, St Louis Mo.), HALTS (Thermo Fisher, Rockford, Ill.) for 30 min on wet ice. Cell lysates are frozen at −80 OC before testing. The lysates are tested in the Human/Mouse/Rat Phospho-RPS6 ELISA (R&D Systems, Inc. Minn, Minn.). The plate is measured using a microplate reader (SpectraMax M5—Molecular Devices, LLC Sunnyvale, Calif.) set to 450 nm with a wavelength correction of 540. IC50 determination is performed by fitting the curve of inhibitor percent inhibition versus the log of the inhibitor concentration using the GraphPad Prism 5.0 software.

Chain of PI3Kδ (p110δ/p85α) (O00329 whole entry): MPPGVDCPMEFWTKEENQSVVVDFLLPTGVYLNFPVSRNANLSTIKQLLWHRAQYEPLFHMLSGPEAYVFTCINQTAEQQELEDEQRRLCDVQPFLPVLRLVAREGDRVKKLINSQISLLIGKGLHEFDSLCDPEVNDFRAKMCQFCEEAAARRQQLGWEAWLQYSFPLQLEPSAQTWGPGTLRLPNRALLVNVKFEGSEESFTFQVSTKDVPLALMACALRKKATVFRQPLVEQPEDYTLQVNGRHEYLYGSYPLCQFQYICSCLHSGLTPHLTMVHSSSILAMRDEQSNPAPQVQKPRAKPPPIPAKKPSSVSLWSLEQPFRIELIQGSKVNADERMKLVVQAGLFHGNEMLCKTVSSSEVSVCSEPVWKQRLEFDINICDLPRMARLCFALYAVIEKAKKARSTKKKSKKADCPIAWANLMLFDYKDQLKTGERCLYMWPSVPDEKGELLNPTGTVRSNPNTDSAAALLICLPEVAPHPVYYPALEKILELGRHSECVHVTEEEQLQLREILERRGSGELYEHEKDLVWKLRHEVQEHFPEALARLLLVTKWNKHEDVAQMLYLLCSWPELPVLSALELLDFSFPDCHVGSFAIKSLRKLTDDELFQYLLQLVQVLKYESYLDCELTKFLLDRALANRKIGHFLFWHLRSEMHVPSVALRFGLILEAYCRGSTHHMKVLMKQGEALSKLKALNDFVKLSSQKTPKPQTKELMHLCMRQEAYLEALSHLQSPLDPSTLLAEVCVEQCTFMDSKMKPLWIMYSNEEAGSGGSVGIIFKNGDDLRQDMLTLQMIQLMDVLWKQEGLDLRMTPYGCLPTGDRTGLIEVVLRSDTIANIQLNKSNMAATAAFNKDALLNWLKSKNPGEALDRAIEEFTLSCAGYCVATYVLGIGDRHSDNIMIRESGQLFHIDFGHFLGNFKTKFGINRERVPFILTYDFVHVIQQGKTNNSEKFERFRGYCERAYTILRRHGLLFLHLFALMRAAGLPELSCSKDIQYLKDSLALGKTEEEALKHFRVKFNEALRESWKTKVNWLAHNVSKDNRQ
Chain of PI3Kδ (p110δ/p85α) (P27986 whole entry partner): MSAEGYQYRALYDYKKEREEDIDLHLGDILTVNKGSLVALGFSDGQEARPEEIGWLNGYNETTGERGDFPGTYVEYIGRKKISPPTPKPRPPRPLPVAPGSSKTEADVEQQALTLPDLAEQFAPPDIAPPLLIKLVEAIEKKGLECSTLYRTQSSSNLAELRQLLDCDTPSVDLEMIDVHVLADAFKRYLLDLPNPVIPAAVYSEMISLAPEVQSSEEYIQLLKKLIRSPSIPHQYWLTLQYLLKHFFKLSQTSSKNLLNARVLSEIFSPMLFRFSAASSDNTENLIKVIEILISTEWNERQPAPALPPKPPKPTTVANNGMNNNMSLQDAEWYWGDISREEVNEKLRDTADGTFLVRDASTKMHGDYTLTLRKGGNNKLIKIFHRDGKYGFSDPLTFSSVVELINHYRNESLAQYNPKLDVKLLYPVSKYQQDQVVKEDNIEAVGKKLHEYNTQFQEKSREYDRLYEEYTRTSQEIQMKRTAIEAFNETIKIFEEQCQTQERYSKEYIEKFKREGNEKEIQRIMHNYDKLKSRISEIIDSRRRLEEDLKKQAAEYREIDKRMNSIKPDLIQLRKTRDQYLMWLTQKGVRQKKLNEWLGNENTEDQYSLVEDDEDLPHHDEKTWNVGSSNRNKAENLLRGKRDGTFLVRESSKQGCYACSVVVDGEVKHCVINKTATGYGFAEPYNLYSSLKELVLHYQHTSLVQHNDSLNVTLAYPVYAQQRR
Chain of PI3Kγ (p110γ) (P48736 whole entry): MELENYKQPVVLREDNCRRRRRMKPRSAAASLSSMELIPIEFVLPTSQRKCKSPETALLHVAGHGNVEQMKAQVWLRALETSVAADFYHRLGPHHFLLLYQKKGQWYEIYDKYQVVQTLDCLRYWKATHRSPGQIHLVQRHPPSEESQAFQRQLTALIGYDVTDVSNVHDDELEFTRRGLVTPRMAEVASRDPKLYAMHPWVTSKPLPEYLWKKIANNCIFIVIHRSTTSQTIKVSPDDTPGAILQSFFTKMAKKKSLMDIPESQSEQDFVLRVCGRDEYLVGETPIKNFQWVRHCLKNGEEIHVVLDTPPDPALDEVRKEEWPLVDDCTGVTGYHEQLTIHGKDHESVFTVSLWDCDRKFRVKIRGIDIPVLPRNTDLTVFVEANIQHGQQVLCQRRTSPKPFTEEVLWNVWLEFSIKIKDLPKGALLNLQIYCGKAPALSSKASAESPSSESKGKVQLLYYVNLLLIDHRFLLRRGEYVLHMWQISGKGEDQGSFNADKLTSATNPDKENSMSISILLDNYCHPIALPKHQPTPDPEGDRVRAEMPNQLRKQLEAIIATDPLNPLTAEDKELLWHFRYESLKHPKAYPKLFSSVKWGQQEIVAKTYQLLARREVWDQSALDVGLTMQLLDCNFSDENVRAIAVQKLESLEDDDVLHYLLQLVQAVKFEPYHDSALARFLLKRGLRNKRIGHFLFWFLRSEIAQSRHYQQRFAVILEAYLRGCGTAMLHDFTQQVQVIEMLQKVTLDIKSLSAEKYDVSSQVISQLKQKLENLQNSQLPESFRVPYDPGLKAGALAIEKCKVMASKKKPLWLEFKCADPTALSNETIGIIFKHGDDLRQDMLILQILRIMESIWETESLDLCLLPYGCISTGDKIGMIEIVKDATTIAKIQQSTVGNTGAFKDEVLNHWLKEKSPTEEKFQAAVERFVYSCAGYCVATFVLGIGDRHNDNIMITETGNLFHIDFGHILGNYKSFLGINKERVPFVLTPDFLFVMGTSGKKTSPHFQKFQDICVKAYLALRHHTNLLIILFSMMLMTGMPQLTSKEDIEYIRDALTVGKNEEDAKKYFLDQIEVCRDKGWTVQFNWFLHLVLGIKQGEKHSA

Q: Which IC50 (PI3Kγ (p110γ)) does the source give for C[C@@H](C1CC1)N1Cc2cc(-c3cnc(N)c(C(=O)NC4CCOCC4)n3)ccc2C1=O [Example 1, (S)-3-Amino-6-(2-(1-cyclopropylethyl)-1-oxoisoindolin-5-yl)-N-(tetrahydro-2H-pyran-4-yl)pyrazine-2-carboxamide trifluoroacetate salt] here?
A: ≤ 100 nM

Q: And the IC50 (PI3Kδ (p110δ/p85α))?
A: 500 to 2000 nM

Q: What about the IC50 [1] of the same molecule?
A: ≥ 1000 nM

Q: What does the source list for CC(C)NC(=O)c1nc(-c2ccc3c(c2)CN([C@@H](C)C2CC2)C3=O)cnc1N [Example 2, (S)-3-Amino-6-(2-(1-cyclopropylethyl)-1-oxoisoindolin-5-yl)-N-isopropylpyrazine-2-carboxamide trifluoroacetate salt]?
A: IC50 (PI3Kγ (p110γ)): ≤ 100 nM; IC50 (PI3Kδ (p110δ/p85α)): 500 to 2000 nM; IC50 [1]: ≥ 1000 nM

Q: Which results are given for C[C@@H](C1CC1)N1Cc2cc(-c3cnc(N)c(C(=O)NC4CCOCC4)n3)cc(S(C)(=O)=O)c2C1=O [Example 3, (S)-3-Amino-6-(2-(1-cyclopropylethyl)-7-(methylsulfonyl)-1-oxoisoindolin-5-yl)-N-(tetrahydro-2H-pyran-4-yl)pyrazine-2-carboxamide trifluoroacetate salt]?
A: IC50 (PI3Kγ (p110γ)): ≤ 100 nM; IC50 (PI3Kδ (p110δ/p85α)): 100 to 500 nM; IC50 [1]: 100 to 500 nM

Q: CC(C)NC(=O)c1nc(-c2cc3c(c(S(C)(=O)=O)c2)C(=O)N([C@@H](C)C2CC2)C3)cnc1N [Example 4, (S)-3-Amino-6-(2-(1-cyclopropylethyl)-7-(methylsulfonyl)-1-oxoisoindolin-5-yl)-N-isopropylpyrazine-2-carboxamide trifluoroacetate salt] was tested. Which IC50 (PI3Kγ (p110γ)) did it give?
A: ≤ 100 nM

Q: What about the IC50 (PI3Kδ (p110δ/p85α)) of the same molecule?
A: 500 to 2000 nM

Q: And the IC50 [1]?
A: ≥ 1000 nM

Q: What does the source list for Cc1cc(-c2cnc(N)cn2)cc2cn(C(C)C3CC3)nc12 (centres unmarked) [Example 5, 5-(2-(1-Cyclopropylethyl)-7-methyl-2H-indazol-5-yl)pyrazin-2-amine, trifluoroacetate]?
A: IC50 (PI3Kγ (p110γ)): 100 to 500 nM; IC50 (PI3Kδ (p110δ/p85α)): ≥ 2000 nM

Q: Which results are given for CC(C1CC1)n1nc2ccc(-c3cnc(N)cn3)cc2n1 (centres unmarked) [Example 6, 5-(2-(1-Cyclopropylethyl)-2H-benzo[d][1,2,3]triazol-5-yl)pyrazin-2-amine, trifluoroacetate]?
A: IC50 (PI3Kγ (p110γ)): 500 to 2000 nM; IC50 (PI3Kδ (p110δ/p85α)): ≥ 2000 nM

Q: Which IC50 (PI3Kγ (p110γ)) does the source give for C[C@@H](C1CC1)N1Cc2cc(-c3cnc(N)c(-c4ccnn4C)n3)cc(S(C)(=O)=O)c2C1=O [Example 7, (S)-5-(5-Amino-6-(1-methyl-1H-pyrazol-5-yl)pyrazin-2-yl)-2-(1-cyclopropylethyl)-7-(methylsulfonyl)isoindolin-1-one, trifluoroacetate salt] here?
A: ≤ 100 nM

Q: What about the IC50 (PI3Kδ (p110δ/p85α)) of the same molecule?
A: 500 to 2000 nM

Q: What about the IC50 [1] of the same molecule?
A: ≥ 1000 nM

Q: What does the source list for C[C@@H](C1CC1)N1Cc2cc(-c3cnc(N)c(-c4cnn(C)c4)n3)cc(S(C)(=O)=O)c2C1=O [Example 8, (S)-5-(5-Amino-6-(1-methyl-1H-pyrazol-4-yl)pyrazin-2-yl)-2-(1-cyclopropylethyl)-7-(methylsulfonyl)isoindolin-1-one, trifluoroacetate salt]?
A: IC50 (PI3Kγ (p110γ)): ≤ 100 nM; IC50 (PI3Kδ (p110δ/p85α)): 500 to 2000 nM; IC50 [1]: 500 to 1000 nM

Q: With Cc1ncc(-c2nc(-c3cc4c(c(S(C)(=O)=O)c3)C(=O)N([C@@H](C)C3CC3)C4)cnc2N)s1 [Example 9, (S)-5-(5-Amino-6-(2-methylthiazol-5-yl)pyrazin-2-yl)-2-(1-cyclopropylethyl)-7-(methylsulfonyl)isoindolin-1-one, trifluoroacetate salt] as the molecule, how does the IC50 (PI3Kγ (p110γ)) read?
A: ≤ 100 nM

Q: And the IC50 (PI3Kδ (p110δ/p85α))?
A: 100 to 500 nM

Q: What about the IC50 [1] of the same molecule?
A: 500 to 1000 nM

Q: What does the source list for Cc1n[nH]cc1-c1nc(-c2cc3c(c(S(C)(=O)=O)c2)C(=O)N([C@@H](C)C2CC2)C3)cnc1N [Example 10, (S)-5-(5-Amino-6-(3-methyl-1H-pyrazol-4-yl)pyrazin-2-yl)-2-(1-cyclopropylethyl)-7-(methylsulfonyl)isoindolin-1-one, trifluoroacetate salt]?
A: IC50 (PI3Kγ (p110γ)): ≤ 100 nM; IC50 (PI3Kδ (p110δ/p85α)): 500 to 2000 nM; IC50 [1]: ≥ 1000 nM

Q: With C[C@@H](C1CC1)N1Cc2cc(-c3cnc(N)c(-c4cn[nH]c4)n3)cc(S(C)(=O)=O)c2C1=O [Example 11, (S)-5-(5-Amino-6-(1H-pyrazol-4-yl)pyrazin-2-yl)-2-(1-cyclopropylethyl)-7-(methylsulfonyl)isoindolin-1-one, trifluoroacetate salt] as the molecule, how does the IC50 (PI3Kγ (p110γ)) read?
A: ≤ 100 nM

Q: What about the IC50 (PI3Kδ (p110δ/p85α)) of the same molecule?
A: 500 to 2000 nM

Q: For C[C@@H](C1CC1)N1Cc2cc(-c3cnc(N)c(-n4cncn4)n3)cc(S(C)(=O)=O)c2C1=O [Example 12, (S)-5-(5-Amino-6-(1H-1,2,4-triazol-1-yl)pyrazin-2-yl)-2-(1-cyclopropylethyl)-7-(methylsulfonyl)isoindolin-1-one, trifluoroacetate salt], which IC50 (PI3Kγ (p110γ)) is on record?
A: ≤ 100 nM

Q: What about the IC50 (PI3Kδ (p110δ/p85α)) of the same molecule?
A: 500 to 2000 nM

Q: What about the IC50 [1] of the same molecule?
A: ≥ 1000 nM

Q: Which results are given for C[C@@H](C1CC1)N1Cc2cc(-c3cnc(N)c(C4CN(C(=O)C5(C(F)(F)F)CC5)C4)n3)ccc2C1=O [Example 13, (S)-5-(5-Amino-6-(1-(1-(trifluoromethyl)cyclopropane-1-carbonyl)azetidin-3-yl)pyrazin-2-yl)-2-(1-cyclopropylethyl)isoindolin-1-one, 0.7× trifluoroacetate salt]?
A: IC50 (PI3Kγ (p110γ)): ≤ 100 nM; IC50 (PI3Kδ (p110δ/p85α)): ≥ 2000 nM
